Data on 32 molecules can be found in patent US20120129833A1, “CYCLIC KETOENOLS FOR THERAPY” (BAYER PHARMA AKTIENGESELLSCHAFT, priority 2010, published 2012).

The target in assay [1] is T1, recombinant human ACC1 (acetyl-CoA carboxylase 1) (Homo sapiens, UniProt Q13085).
T1 construct: NM_198834, amino acids 39—end; FLAG (C); made in house; host or cells: baculovirus-transfected insect cells (Hi5)
Briefly: Human ACC1 enzyme assay (HTRF ADP detection).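 Also: ADP by-product quantified by competitive HTRF immunoassay with europium cryptate anti-ADP antibody and d2-labelled ADP, read after 1 h binding at 22 °C, enzyme near 2.5 ng/µl.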 The format is biochemical. The conditions noted are these: 50 μM ATP, 20 μM acetyl-CoA, 15 min pre-incubation, 20 min at 22° C.; read-out: ACC 1 IC50. A general note: In TR-FRET formats the signal depends on donor and acceptor labels being close together.
Procedure: The basic principle of the assay is the measurement of adenosine diphosphate (ADP), which is formed as a by-product, by means of an HTRF®-based competitive immunoassay (HTRF=Homogeneous Time Resolved Fluorescence).
The amount of complex of d2-labelled ADP and europium cryptate-labelled anti-ADP antibody was then determined by measuring the resonance energy transfer of europium cryptate to d2.

Assay [2] addresses T2, ACC2 (acetyl-CoA carboxylase 2) (Homo sapiens, UniProt O00763).
T2 construct: catalogue no; 50201, amino acids 39—end, expressed in baculovirus-transfected Sf9 insect cells; His (C); purchased BPS Bioscience (San Diego, Calif.) 50201; host or cells: baculovirus-transfected Sf9 insect cells
Put plainly: Human ACC2 enzyme assay (HTRF ADP detection). The format is biochemical. The conditions noted are these: 20 μM acetyl-CoA, 15 min pre-incubation, 20 min at 22° C.; read-out: ACC 2 IC50.

pIC50: −log10 of the molar value.

T2 sequence (O00763 39-2458 limits assumed): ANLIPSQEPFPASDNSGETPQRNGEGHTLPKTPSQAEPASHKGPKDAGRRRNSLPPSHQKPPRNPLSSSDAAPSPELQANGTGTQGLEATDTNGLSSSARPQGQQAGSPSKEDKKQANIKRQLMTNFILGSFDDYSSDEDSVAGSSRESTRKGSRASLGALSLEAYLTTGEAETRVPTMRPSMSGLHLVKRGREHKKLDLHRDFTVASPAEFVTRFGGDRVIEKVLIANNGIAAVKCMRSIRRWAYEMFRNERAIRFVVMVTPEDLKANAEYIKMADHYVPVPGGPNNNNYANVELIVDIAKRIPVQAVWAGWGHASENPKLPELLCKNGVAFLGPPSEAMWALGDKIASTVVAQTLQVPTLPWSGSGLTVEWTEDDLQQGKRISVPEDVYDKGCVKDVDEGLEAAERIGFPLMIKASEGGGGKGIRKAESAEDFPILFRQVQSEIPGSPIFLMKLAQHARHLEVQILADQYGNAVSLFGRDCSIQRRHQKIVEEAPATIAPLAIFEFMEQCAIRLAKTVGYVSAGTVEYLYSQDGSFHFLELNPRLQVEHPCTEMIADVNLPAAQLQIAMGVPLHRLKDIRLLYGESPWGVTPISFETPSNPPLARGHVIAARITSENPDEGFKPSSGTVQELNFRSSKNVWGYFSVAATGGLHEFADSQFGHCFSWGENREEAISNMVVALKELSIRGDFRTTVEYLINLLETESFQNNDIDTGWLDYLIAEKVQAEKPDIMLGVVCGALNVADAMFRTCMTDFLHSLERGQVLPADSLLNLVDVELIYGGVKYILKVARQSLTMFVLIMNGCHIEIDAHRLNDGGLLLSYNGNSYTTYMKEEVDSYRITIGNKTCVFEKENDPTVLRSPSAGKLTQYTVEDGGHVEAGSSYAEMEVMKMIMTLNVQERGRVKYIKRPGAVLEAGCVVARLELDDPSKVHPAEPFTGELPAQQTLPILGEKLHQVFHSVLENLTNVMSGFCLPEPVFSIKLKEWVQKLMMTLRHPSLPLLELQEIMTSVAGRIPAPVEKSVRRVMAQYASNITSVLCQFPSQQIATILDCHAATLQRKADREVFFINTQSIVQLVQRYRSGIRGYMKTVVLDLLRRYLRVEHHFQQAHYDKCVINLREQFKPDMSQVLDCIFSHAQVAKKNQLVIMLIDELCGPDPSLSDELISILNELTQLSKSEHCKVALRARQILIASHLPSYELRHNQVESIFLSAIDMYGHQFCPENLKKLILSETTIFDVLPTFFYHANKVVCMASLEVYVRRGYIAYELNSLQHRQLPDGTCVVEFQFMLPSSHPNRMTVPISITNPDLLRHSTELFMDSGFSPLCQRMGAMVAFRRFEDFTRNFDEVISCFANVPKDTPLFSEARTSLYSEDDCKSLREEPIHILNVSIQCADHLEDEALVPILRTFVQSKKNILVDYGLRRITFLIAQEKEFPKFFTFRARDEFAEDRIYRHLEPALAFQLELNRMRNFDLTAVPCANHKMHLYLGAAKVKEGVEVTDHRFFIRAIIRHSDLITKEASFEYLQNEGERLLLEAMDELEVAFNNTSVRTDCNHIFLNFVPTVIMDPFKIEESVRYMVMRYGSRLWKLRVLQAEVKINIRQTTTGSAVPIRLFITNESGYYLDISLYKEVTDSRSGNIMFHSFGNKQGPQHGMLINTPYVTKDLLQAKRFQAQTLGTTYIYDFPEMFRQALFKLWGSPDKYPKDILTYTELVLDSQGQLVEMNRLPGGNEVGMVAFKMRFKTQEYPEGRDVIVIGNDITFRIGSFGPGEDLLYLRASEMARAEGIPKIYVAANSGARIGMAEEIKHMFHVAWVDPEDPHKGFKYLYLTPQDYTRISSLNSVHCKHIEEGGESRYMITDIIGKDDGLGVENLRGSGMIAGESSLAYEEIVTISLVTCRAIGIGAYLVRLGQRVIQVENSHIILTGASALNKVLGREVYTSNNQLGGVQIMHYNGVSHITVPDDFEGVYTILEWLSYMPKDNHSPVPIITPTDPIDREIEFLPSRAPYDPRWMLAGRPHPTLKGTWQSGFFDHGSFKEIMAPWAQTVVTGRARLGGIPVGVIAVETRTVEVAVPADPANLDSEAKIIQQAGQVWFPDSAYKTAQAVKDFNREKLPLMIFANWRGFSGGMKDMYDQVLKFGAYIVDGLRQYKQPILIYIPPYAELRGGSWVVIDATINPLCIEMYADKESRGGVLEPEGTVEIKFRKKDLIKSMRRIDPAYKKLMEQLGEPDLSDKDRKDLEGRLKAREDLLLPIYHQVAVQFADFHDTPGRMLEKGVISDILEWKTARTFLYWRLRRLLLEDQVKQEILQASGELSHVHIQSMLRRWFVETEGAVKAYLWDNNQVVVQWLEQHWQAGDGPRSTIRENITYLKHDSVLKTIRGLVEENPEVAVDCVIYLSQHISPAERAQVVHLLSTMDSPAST

For orientation: pIC50 means the IC50 on a negative log10 scale, so that one unit is a factor of ten. Consider `Cc1cc(C)c(-c2ccc(Cl)cc2)c(C)c1C1=C(O)[C@]2(CC[C@@]3(CCCO3)CC2)OC1=O` [Example 2-31, (5r,8s)-3-(4′-chloro-2,4,6-trimethylbiphenyl-3-yl)-4-hydroxy-1,9-dioxadispiro[4.2.4.2]tetradec-3-en-2-one], for which the figures for the negative-log IC50 (pIC50) in assay [1] and in assay [2] were 6.06 and 7.32, respectively.

For the molecule `Cc1ccc(-c2ccc(Cl)cc2)c(C)c1C1=C(O)C2(CCC(OCC(F)(F)F)CC2)OC1=O` (stereo not shown) [Example 2-32, 3-(4′-chloro-2,4-dimethylbiphenyl-3-yl)-4-hydroxy-8-(2,2,2-trifluoroethoxy)-1-oxaspiro[4.5]dec-3-en-2-one], the pIC50 in assay [1] is 6.35; in assay [2], 5.80.

For the molecule `Cc1ccc(-c2ccc(Cl)cc2)cc1C1=C(O)C2(CCC(OCC(F)(F)F)CC2)OC1=O` (stereo not shown) [Example 2-33, 3-(4′-chloro-4-methylbiphenyl-3-yl)-4-hydroxy-8-(2,2,2-trifluoroethoxy)-1-oxaspiro[4.5]dec-3-en-2-one], the negative-log IC50 (pIC50) was 6.64 in assay [1] and 5.45 in assay [2].

Consider `COC1CCC2(CC1)OC(=O)C(c1c(C)ccc(-c3ccc(Cl)cc3)c1C)=C2O` (stereo not shown) [Example 2-34, 3-(4′-chloro-2,4-dimethylbiphenyl-3-yl)-4-hydroxy-8-methoxy-1-oxaspiro[4.5]dec-3-en-2-one], for which the pIC50 in assay [1] was 6.54; in assay [2], 5.89.

`Cc1ccc(-c2ccc(Cl)cc2)cc1C1=C(O)C(C(C)(C)C)OC1=O` (stereo not shown) [Example 2-35, 5-tert-butyl-3-(4′-chloro-4-methylbiphenyl-3-yl)-4-hydroxyfuran-2(5H)-one]: the results for the pIC50 in assay [1] and in assay [2] were 5.99 and under 4.70, respectively.

For the molecule `Cc1ccc(-c2ccc(Cl)cc2)cc1C1=C(O)C2(CCOCC2)OC1=O` [Example 2-37, 3-(4′-chloro-4-methylbiphenyl-3-yl)-4-hydroxy-1,8-dioxaspiro[4.5]dec-3-en-2-one], the negative-log IC50 (pIC50) in assay [1] was 6.47; in assay [2] it was under 4.70.

Take `Cc1ccc(-c2ccc(Cl)cc2)cc1C1=C(O)C2(CCCCCC2)OC1=O` [Example 2-38, 3-(4′-chloro-4-methylbiphenyl-3-yl)-4-hydroxy-1-oxaspiro[4.6]undec-3-en-2-one]: the negative-log IC50 (pIC50) is 6.38 in assay [1] and 5.42 in assay [2].

For the molecule `COC1CCC2(CC1)OC(=O)C(c1cc(-c3ccc(Cl)cc3)ccc1C)=C2O` (stereo not shown) [Example 2-39, 3-(4′-chloro-4-methylbiphenyl-3-yl)-4-hydroxy-8-methoxy-1-oxaspiro[4.5]dec-3-en-2-one], the pIC50 in assay [1] is 6.67; in assay [2] it was 5.45.

In the case of `Cc1ccc(-c2ccc(Cl)cc2)cc1C1=C(O)C(C)(C2CCCCC2)OC1=O` (stereo not shown) [Example 2-40, 3-(4′-chloro-4-methylbiphenyl-3-yl)-5-cyclohexyl-4-hydroxy-5-methylfuran-2(5H)-one], the pIC50 in assay [1] was 5.92; in assay [2], under 4.70.

On to `Cc1cc(C)c(-c2ccc(Cl)cc2)cc1C1=C(O)C2(CCOCC2)OC1=O` [Example 2-41, 3-(4′-chloro-4,6-dimethylbiphenyl-3-yl)-4-hydroxy-1,8-dioxaspiro[4.5]dec-3-en-2-one], for which the pIC50 was 6.10 in assay [1] and 5.37 in assay [2].

Consider `Cc1cc(C)c(-c2ccc(Cl)cc2)cc1C1=C(O)C2(CCSCC2)OC1=O` [Example 2-42, 3-(4′-chloro-4,6-dimethylbiphenyl-3-yl)-4-hydroxy-1-oxa-8-thiaspiro[4.5]dec-3-en-2-one], for which the negative logarithm of the IC50 (pIC50) is 6.45 in assay [1] and 5.99 in assay [2].

As to `Cc1cc(C)c(-c2ccc(Cl)cc2)cc1C1=C(O)C2(CCCCCC2)OC1=O` [Example 2-43, 3-(4′-chloro-4,6-dimethylbiphenyl-3-yl)-4-hydroxy-1-oxaspiro[4.6]undec-3-en-2-one], the negative-log IC50 (pIC50) in assay [1] is 6.30; in assay [2] it was 6.48.

Turning to `COC1CCC2(CC1)OC(=O)C(c1cc(-c3ccc(Cl)cc3)c(C)cc1C)=C2O` (stereo not shown) [Example 2-44, 3-(4′-chloro-4,6-dimethylbiphenyl-3-yl)-4-hydroxy-8-methoxy-1-oxaspiro[4.5]dec-3-en-2-one], the negative-log IC50 (pIC50) in assay [1] is 6.53; in assay [2], 6.80.

In the case of `Cc1cc(C)c(-c2ccc(Cl)cc2)cc1C1=C(O)C(C)OC1=O` (stereo not shown) [Example 2-45, 3-(4′-chloro-4,6-dimethylbiphenyl-3-yl)-4-hydroxy-5-methylfuran-2(5H)-one], the values for the negative-log IC50 (pIC50) in assay [1] and in assay [2] were 6.25 and 4.77, respectively.

With `Cc1cc(C)c(-c2ccc(Cl)cc2)cc1C1=C(O)C2(CCCOC2)OC1=O` (stereo not shown) [Example 2-46, 3-(4′-chloro-4,6-dimethylbiphenyl-3-yl)-4-hydroxy-1,7-dioxaspiro[4.5]dec-3-en-2-one], the results for the pIC50 in assay [1] and in assay [2] were 6.24 and 5.12, respectively.

Regarding `Cc1cc(C)c(-c2ccc(Cl)cc2)c(C)c1C1=C(O)C2(CCCCCC2)OC1=O` [Example 2-48, 3-(4′-chloro-2,4,6-trimethylbiphenyl-3-yl)-4-hydroxy-1-oxaspiro[4.6]undec-3-en-2-one], the negative-log IC50 (pIC50) in assay [1] was 5.74; in assay [2], 6.69.

In the case of `Cc1cc(C)c(-c2ccc(Cl)cc2)c(C)c1C1=C(O)C2(CCCC2)OC1=O` [Example 2-49, 3-(4′-chloro-2,4,6-trimethylbiphenyl-3-yl)-4-hydroxy-1-oxaspiro[4.4]non-3-en-2-one], the negative-log IC50 (pIC50) was 5.24 in assay [1] and 5.89 in assay [2].

Consider `Cc1ccc(-c2cccc(Cl)c2)cc1C1=C(O)C2(CCCCCC2)OC1=O` [Example 2-50, 3-(3′-chloro-4-methylbiphenyl-3-yl)-4-hydroxy-1-oxaspiro[4.6]undec-3-en-2-one], for which the figures for the pIC50 in assay [1] and in assay [2] were 6.04 and 5.07, respectively.

Turning to `Cc1ccc(-c2ccc(Cl)cc2)cc1C1=C(O)C2(CCCCC2)SC1=O` [Example 3-2, 3-(4′-chloro-4-methylbiphenyl-3-yl)-4-hydroxy-1-thiaspiro[4.5]dec-3-en-2-one], the negative-log IC50 (pIC50) in assay [1] was 7.01; in assay [2], 5.78.

Take `Cc1cc(C)c(-c2ccc(Cl)cc2)cc1C1=C(O)C2(CCCCC2)SC1=O` [Example 3-3, 3-(4′-chloro-4,6-dimethylbiphenyl-3-yl)-4-hydroxy-1-thiaspiro[4.5]dec-3-en-2-one]: the pIC50 in assay [1] is 6.47; in assay [2] it was 6.60.

For the molecule `Cc1cc(C)c(-c2ccc(Cl)cc2)c(C)c1C1=C(O)C2(CCCCC2)SC1=O` [Example 3-4, 3-(4′-chloro-2,4,6-trimethylbiphenyl-3-yl)-4-hydroxy-1-thiaspiro[4.5]dec-3-en-2-one], the pIC50 in assay [1] is 5.88; in assay [2] it was 6.64.

For `Cc1ccc(-c2ccc(C)c(C3=C(O)C4(CCCCC4)CC3=O)c2)cc1` [Example 6-1, 3-(4,4′-dimethylbiphenyl-3-yl)-4-hydroxyspiro[4.5]dec-3-en-2-one], the pIC50 was 6.18 in assay [1] and 4.80 in assay [2].

Regarding `Cc1ccc(-c2ccc(Cl)cc2Cl)cc1C1=C(O)C2(CCCCC2)CC1=O` [Example 6-2, 3-(2′,4′-dichloro-4-methylbiphenyl-3-yl)-4-hydroxyspiro[4.5]dec-3-en-2-one], the values for the negative logarithm of the IC50 (pIC50) in assay [1] and in assay [2] were 6.47 and 5.77, respectively.

`Cc1ccc(-c2cccc(Cl)c2)cc1C1=C(O)C2(CCCCC2)CC1=O` [Example 6-3, 3-(3′-chloro-4-methylbiphenyl-3-yl)-4-hydroxyspiro[4.5]dec-3-en-2-one]: the negative logarithm of the IC50 (pIC50) in assay [1] was 5.86; in assay [2], 4.79.

`Cc1ccc(-c2ccc(Cl)cc2)cc1C1=C(O)C2(CCCC2)CC1=O` [Example 6-4, 3-(4′-chloro-4-methylbiphenyl-3-yl)-4-hydroxyspiro[4.4]non-3-en-2-one]: the pIC50 in assay [1] is 6.48; in assay [2], 5.51.

In the case of `CCC1CCC2(CC1)CC(=O)C(c1cc(-c3ccc(Cl)cc3)ccc1C)=C2O` (stereo not shown) [Example 6-5, 3-(4′-chloro-4-methylbiphenyl-3-yl)-8-ethyl-4-hydroxyspiro[4.5]dec-3-en-2-one], the pIC50 in assay [1] was 6.12; in assay [2], 6.25.

Regarding `CCCC1CCC2(CC1)CC(=O)C(c1cc(-c3ccc(Cl)cc3)ccc1C)=C2O` (stereo not shown) [Example 6-6, 3-(4′-chloro-4-methylbiphenyl-3-yl)-4-hydroxy-8-propylspiro[4.5]dec-3-en-2-one], the pIC50 in assay [1] was 6.03; in assay [2] it was 6.11.

Turning to `Cc1ccc(-c2ccc(Cl)cc2)cc1C1=C(O)C2(CCCCCC2)CC1=O` [Example 6-7, 3-(4′-chloro-4-methylbiphenyl-3-yl)-4-hydroxyspiro[4.6]undec-3-en-2-one], the results for the negative-log IC50 (pIC50) in assay [1] and in assay [2] were 6.33 and 6.18, respectively.

For the molecule `Cc1cc(C)c(-c2ccc(Cl)cc2)cc1C1=C(O)C2(CCCCC2)CC1=O` [Example 6-8, 3-(4′-chloro-4,6-dimethylbiphenyl-3-yl)-4-hydroxyspiro[4.5]dec-3-en-2-one], the negative logarithm of the IC50 (pIC50) is 5.86 in assay [1] and 6.90 in assay [2].

For the molecule `Cc1cc(C)c(-c2ccc(Cl)cc2)c(C)c1C1=C(O)C2(CCCCC2)CC1=O` [Example 6-9, 3-(4′-chloro-2,4,6-trimethylbiphenyl-3-yl)-4-hydroxyspiro[4.5]dec-3-en-2-one], the pIC50 in assay [1] is under 4.70; in assay [2], 6.41.

For the molecule `Cc1ccc(-c2ccc(Cl)cc2)cc1C1=C(O)CC(C)CC1=O` (stereo not shown) [Example 7-1, 2-(4′-chloro-4-methylbiphenyl-3-yl)-3-hydroxy-5-methylcyclohex-2-en-1-one], the negative logarithm of the IC50 (pIC50) in assay [1] is 6.17; in assay [2] it was under 4.70.

With `Cc1ccc(-c2ccc(Cl)cc2)cc1C1=C(O)CC2(CCCCC2)CC1=O` [Example 7-2, 3-(4′-chloro-4-methylbiphenyl-3-yl)-4-hydroxyspiro[5.5]undec-3-en-2-one], the pIC50 was 6.24 in assay [1] and under 4.70 in assay [2].
